# From ChEMBL document CHEMBL2177047, “Design, synthesis, and pharmacological evaluation of bis-2-(5-phenylacetamido-1,2,4-thiadiazol-2-yl)ethyl sulfide 3 (BPTES) analogs as glutaminase inhibitors” (J Med Chem, 2012)
# Calls of active or inactive are those of the source. The calls are words filed in the database; no cut-off is given here.
# Tested on: Liver
# Experiment: Metabolic stability in mouse liver microsomes at 5 uM up to 1 hr by LC/MS/MS analysis
# Format: ADME, Microsome
# Conditions: not given
row,SMILES,Stability
1,O=C(CCCCc1nnc(NC(=O)Cc2ccccc2)s1)NCCN1CCCC1,Stable
2,Nc1nnc(CCCCc2nnc(NC(=O)Cc3ccccc3)s2)s1,Stable

# Tested on: P493
# Experiment: Antitumor activity against human P493 cells xenografted in SCID mouse assessed as reduction in tumor growth at 12.5 mg/kg, ip administered every other day from day 10 measured on days 10 to 19 relative to vehicle-treated control
# Format: functional, organism-based
# Parameters: dose 12.5 mg/kg
# Conditions: not given
row,SMILES,TGI
1,Nc1nnc(CCSCCc2nnc(NC(=O)Cc3ccccc3)s2)s1,Active

# Tested on: not listed separately
# Experiment: (§1) Cytotoxicity against human P493 cells assessed as growth inhibition by trypan blue dye exclusion assay
# Format: functional, cell-based
# Conditions: P493-6
row,SMILES,IC50
1,O=C(CCCCc1nnc(NC(=O)Cc2ccccc2)s1)NCCN1CCCC1,40 µM

# Tested on: P493
# Experiment: as §1
# Format: functional, cell-based
# Conditions: not given
row,SMILES,growth inhibition (GI)
1,Nc1nnc(CCSCCc2nnc(NC(=O)Cc3ccccc3)s2)s1,Dose-dependent effect

# Molecular target: T1, Glutaminase liver isoform, mitochondrial (Mus musculus) (UniProt Q571F8)
# T1 sequence (whole entry): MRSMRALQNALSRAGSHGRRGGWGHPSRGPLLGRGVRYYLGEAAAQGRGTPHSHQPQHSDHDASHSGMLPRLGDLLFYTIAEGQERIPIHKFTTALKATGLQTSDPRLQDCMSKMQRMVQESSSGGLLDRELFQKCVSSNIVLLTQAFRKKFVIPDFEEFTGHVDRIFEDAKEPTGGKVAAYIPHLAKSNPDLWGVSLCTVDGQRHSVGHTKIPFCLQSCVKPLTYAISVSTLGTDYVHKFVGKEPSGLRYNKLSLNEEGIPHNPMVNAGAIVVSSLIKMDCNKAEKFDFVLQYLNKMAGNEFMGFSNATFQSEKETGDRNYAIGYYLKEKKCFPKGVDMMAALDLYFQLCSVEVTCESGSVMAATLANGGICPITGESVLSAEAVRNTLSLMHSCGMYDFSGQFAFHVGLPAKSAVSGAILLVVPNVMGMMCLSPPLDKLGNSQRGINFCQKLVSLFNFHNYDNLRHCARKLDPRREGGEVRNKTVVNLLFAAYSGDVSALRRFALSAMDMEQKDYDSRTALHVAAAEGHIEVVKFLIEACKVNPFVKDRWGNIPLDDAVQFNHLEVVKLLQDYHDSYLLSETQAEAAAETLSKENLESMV
# Experiment: Inhibition of mouse liver GLS2 up to 100 uM
# Conditions: not given
row,inhibition,SMILES
1,inactive,Nc1nnc(CCSCCc2nnc(NC(=O)Cc3ccccc3)s2)s1

# Molecular target: T2, Glutaminase kidney isoform, mitochondrial (Homo sapiens, UniProt O94925)
# T2 sequence (O94925 whole entry): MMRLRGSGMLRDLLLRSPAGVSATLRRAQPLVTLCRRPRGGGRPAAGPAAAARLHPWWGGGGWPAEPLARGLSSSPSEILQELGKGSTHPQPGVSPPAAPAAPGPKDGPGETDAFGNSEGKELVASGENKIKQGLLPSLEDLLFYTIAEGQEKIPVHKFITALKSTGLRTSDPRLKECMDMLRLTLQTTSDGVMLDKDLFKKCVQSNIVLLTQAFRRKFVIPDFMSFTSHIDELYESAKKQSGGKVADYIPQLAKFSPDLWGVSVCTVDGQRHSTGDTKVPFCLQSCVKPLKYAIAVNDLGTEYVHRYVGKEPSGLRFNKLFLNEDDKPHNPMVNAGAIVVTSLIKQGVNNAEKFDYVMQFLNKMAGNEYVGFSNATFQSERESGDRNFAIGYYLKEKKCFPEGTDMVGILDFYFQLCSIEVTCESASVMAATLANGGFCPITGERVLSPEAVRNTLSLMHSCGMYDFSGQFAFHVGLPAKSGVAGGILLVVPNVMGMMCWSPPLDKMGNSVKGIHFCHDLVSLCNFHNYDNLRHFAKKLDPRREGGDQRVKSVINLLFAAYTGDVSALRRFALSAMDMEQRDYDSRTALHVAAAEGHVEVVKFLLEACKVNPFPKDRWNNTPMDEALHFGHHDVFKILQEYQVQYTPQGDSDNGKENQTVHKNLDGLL
# Experiment: Inhibition of human kidney glutaminase (124 to 669) using L-[3H]-glutamine as substrate after 45 mins by GLS assay
# Conditions: not given
row,SMILES,IC50
1,O=C(CCCCc1nnc(NC(=O)Cc2ccccc2)s1)NCCN1CCC(c2ccccc2)CC1,1.4 µM
2,Nc1nnc(CCCCc2nnc(NC(=O)CC3CCCCC3)s2)s1,22 µM
3,Nc1nnc(CCCCc2cnc(NC(=O)Cc3ccccc3)s2)s1,> 100 µM
4,O=C(CCCCc1nnc(NC(=O)Cc2ccccc2)s1)NCCN1CCC(O)CC1,3.8 µM
5,Nc1nnc(CCCCc2nnc(NC(=O)Cc3ccc(F)cc3)s2)s1,2.6 µM
6,Nc1nnc(CC[S+]([O-])CCc2nnc(NC(=O)Cc3ccccc3)s2)s1 (stereo not given),61 µM
7,CN(C(=O)CCCCc1nnc(NC(=O)Cc2ccccc2)s1)C(C)(C)C,5.2 µM
8,CN(CCN1CCCC1)C(=O)CCCCc1nnc(NC(=O)Cc2ccccc2)s1,> 100 µM
9,O=C(CCCCc1nnc(NC(=O)Cc2ccccc2)s1)NCCN1CCCCC1,10 µM
10,CC(C(=O)Nc1nnc(CCCCc2nnc(N)s2)s1)c1ccccc1 (stereo not given),12 µM
11,Nc1nnc(CCCCc2nnc(NC(=O)c3ccccc3)s2)s1,7.2 µM
12,CCN(CC)CCNC(=O)CCCCc1nnc(NC(=O)Cc2ccccc2)s1,26 µM
13,CN(C)c1ccc(CNC(=O)CCCCc2nnc(NC(=O)Cc3ccccc3)s2)cc1,48 µM
14,Cc1ccc(CC(=O)Nc2nnc(CCCCc3nnc(N)s3)s2)cc1,4.5 µM
15,NCCNC(=O)CCCCc1nnc(NC(=O)Cc2ccccc2)s1,> 100 µM
16,O=C(CCCCc1nnc(NC(=O)Cc2ccccc2)s1)NCc1ccccc1,> 100 µM
17,CC(C)(C)NC(=O)CCCCc1nnc(NC(=O)Cc2ccccc2)s1,11 µM
18,Nc1nnc(CCCCc2csc(NC(=O)Cc3ccccc3)n2)s1,> 100 µM
19,O=C(CCCCc1nnc(NC(=O)Cc2ccccc2)s1)NCc1ccc(C(F)(F)F)cc1,> 100 µM
20,Nc1nnc(CCCCc2nnc(NC(=O)CCc3ccccc3)s2)s1,> 100 µM
21,CN1CCCC1CCNC(=O)CCCCc1nnc(NC(=O)Cc2ccccc2)s1 (stereo not given),8.1 µM
22,Nc1nnc(CCCc2nnc(NC(=O)Cc3ccccc3)s2)s1,15 µM

# Tested on: not listed separately
# Experiment: physchem
# Conditions: PBS buffer, pH 7.4
# Description: Aqueous solubility of the compound in PBS buffer at pH 7.4 after 72 hrs by conventional shake flask method
row,SMILES,solubility thermodynamic at 72 h
1,O=C(CCCCc1nnc(NC(=O)Cc2ccccc2)s1)NCCN1CCCC1,683 µg/mL
2,Nc1nnc(CCCCc2nnc(NC(=O)Cc3ccccc3)s2)s1,3.4 µg/mL
